Among the data in patent US12187816B2, “Macrocyclic compounds and methods of use thereof” (Genentech, Inc., priority 2020, dated 2025) are DC50 values, retold here.

Starred links: 1 amine or outer side, 2 acyl side, 3 side chain; linkers in the order of their positions; H or OH if unused. Non-standard residues stand in square brackets, D forms with d. Residues, ends and D or L forms follow the SMILES beside them. *: point of attachment. β3hPhg(4-(4-MeThiazol-5-yl)) = Cc1ncsc1-c1ccc([C@@H](CC(=O)[*:2])N[*:1])cc1; JQ1acid = Cc1sc2c(c1C)C(c1ccc(Cl)cc1)=N[C@@H](CC(=O)*)c1nnc(C)n1-2; X13 = Cc1ncsc1-c1ccc(C[C@@H](N[*:1])C(=O)[*:2])cc1; X9 = O=C(C[C@@H](Cc1ccc(-c2ccccc2)cc1)N[*:1])[*:2]; dBip = N[C@H](Cc1ccc(-c2ccccc2)cc1)C(=O)O; dLys(N3) = [N-]=[N+]=NCCCC[C@@H](N)C(=O)O; Ile(3-Me) = CCC(C)(C)[C@H](N)C(=O)O; Hyp = O=C(O)[C@@H]1C[C@@H](O)CN1; Tle = CC(C)(C)[C@H](N)C(=O)O; X8 = CN(CCOCC(=O)[*:2])[*:1]; dDap = NC[C@@H](N)C(=O)O; Ahp = NCCCCCCC(=O)O; Ahx = NCCCCCC(=O)O; AEA = NCCOCC(=O)O; GABA = NCCCC(=O)O; βAla = NCCC(=O)O Bounds are passed on as bounds.

Broadly, the DC50 is the midpoint of the concentration-degradation curve. Lower therefore signals degradation at low concentration.

For this test, the target named is T1, BRD4 (Homo sapiens, UniProt O60885).
T1 construct: Mean 488 intensity of BRD4 quantitated in nuclear region; endogenous in cells; host or cells: EoL-1 eosinophilic leukemia cells
Kind of test: BRD4 degradation assay in EOL1 cells (immunofluorescence imaging). The class given is cell-based. To be noted: EoL-1 eosinophilic leukemia cells, 4 hours treatment, nuclear BRD4 immunofluorescence. The essentials:
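EoL-1 cells treated 4 h at 37 °C with 20-point 1/3 serial dilutions (0.2% DMSO) in RPMI/10% FBS, then fixed and immunostained for BRD4. Mean nuclear BRD4 intensity measured by high-content imaging, with Hoechst nuclear masking. DMSO and no-primary-antibody controls define 0 and 100%; DC50 and maximal effect from dose-response fit.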
The molecule `Cc1ncsc1-c1ccc([C@H]2CC(=O)NCC(=O)N[C@H](CNC(=O)C[C@@H]3N=C(c4ccc(Cl)cc4)c4c(sc(C)c4C)-n4c(C)nnc43)C(=O)NCCOCC(=O)N[C@@H](C(C)(C)C)C(=O)N3C[C@H](O)C[C@H]3C(=O)N2)cc1` [Compound 55] (cyclo([AEA][Tle][Hyp][β3hPhg(4-(4-MeThiazol-5-yl))]G[dDap](JQ1acid))) gave a DC50 of under 1000 nM.
To `Cc1sc2c(c1C)C(c1ccc(Cl)cc1)=N[C@@H](CC(=O)NC[C@H]1NC(=O)[C@@H](C)NC(=O)[C@@H](Cc3ccc(-c4ccccc4)cc3)NC(=O)[C@@H]3C[C@@H](O)CN3C(=O)[C@H](C(C)(C)C)n3cc(nn3)COCCNC1=O)c1nnc(C)n1-2` [Compound 56] belongs under 50 nM; to `CCC(C)(C)[C@@H]1NC(=O)COCCNC(=O)[C@@H](CNC(=O)C[C@@H]2N=C(c3ccc(Cl)cc3)c3c(sc(C)c3C)-n3c(C)nnc32)NC(=O)[C@@H](C)NC(=O)[C@@H](Cc2ccc(-c3ccccc3)cc2)NC(=O)[C@@H]2C[C@@H](O)CN2C1=O` [Compound 57] (cyclo([AEA][Ile(3-Me)][Hyp][dBip][dA][dDap](JQ1acid))), under 50 nM; to `Cc1sc2c(c1C)C(c1ccc(Cl)cc1)=N[C@@H](CC(=O)NC[C@H]1NC(=O)[C@@H](C)NC(=O)[C@@H](Cc3ccc(-c4ccccc4)cc3)NC(=O)[C@@H]3C[C@@H](O)CN3C(=O)[C@H](C(C)(C)C)NC(=O)COCCNC1=O)c1nnc(C)n1-2` [Compound 58] (cyclo([AEA][Tle][Hyp][dBip][dA][dDap](JQ1acid))), under 50 nM.
On to `Cc1sc2c(c1C)C(c1ccc(Cl)cc1)=N[C@@H](CC(=O)NC[C@H]1NC(=O)[C@@H](C)NC(=O)[C@@H](Cc3ccc(-c4ccccc4)cc3)NC(=O)[C@@H]3C[C@@H](O)CN3C(=O)[C@H](C(C)(C)C)NC(=O)CCCNC1=O)c1nnc(C)n1-2` [Compound 59] (cyclo([GABA][Tle][Hyp][dBip][dA][dDap](JQ1acid))), for which the DC50 is under 1000 nM.
As to `Cc1sc2c(c1C)C(c1ccc(Cl)cc1)=N[C@@H](CC(=O)NC[C@H]1NC(=O)[C@@H](C)NC(=O)[C@@H](Cc3ccc(-c4ccccc4)cc3)NC(=O)[C@@H]3C[C@@H](O)CN3C(=O)[C@H](C(C)(C)C)NC(=O)CCCCCNC1=O)c1nnc(C)n1-2` [Compound 60] (cyclo([Ahx][Tle][Hyp][dBip][dA][dDap](JQ1acid))), the DC50 was under 50 nM.
Molecule `Cc1sc2c(c1C)C(c1ccc(Cl)cc1)=N[C@@H](CC(=O)NC[C@H]1NC(=O)[C@@H](C)NC(=O)[C@@H](Cc3ccc(-c4ccccc4)cc3)NC(=O)[C@@H]3C[C@@H](O)CN3C(=O)[C@H](C(C)(C)C)NC(=O)CCCCCCNC1=O)c1nnc(C)n1-2` [Compound 61] (cyclo([Ahp][Tle][Hyp][dBip][dA][dDap](JQ1acid))) gave a DC50 of under 50 nM.
For `Cc1sc2c(c1C)C(c1ccc(Cl)cc1)=N[C@@H](CC(=O)NC[C@H]1NC(=O)CCNC(=O)[C@@H](Cc3ccc(-c4ccccc4)cc3)NC(=O)[C@@H]3C[C@@H](O)CN3C(=O)[C@H](C(C)(C)C)NC(=O)COCCNC1=O)c1nnc(C)n1-2` [Compound 62] (cyclo([AEA][Tle][Hyp][dBip][βAla][dDap](JQ1acid))) the value was under 1000 nM.
To `Cc1sc2c(c1C)C(c1ccc(Cl)cc1)=N[C@@H](CC(=O)NC[C@H]1NC(=O)[C@@H](C)NC(=O)[C@@H](Cc3ccc(-c4ccccc4)cc3)NC(=O)[C@@H]3C[C@@H](O)CN3C(=O)[C@H](C(C)(C)C)NC(=O)COCCN(C)C1=O)c1nnc(C)n1-2` [Compound 63] (cyclo([Hyp][dBip][dA][dDap](JQ1acid)[X8][Tle])) belongs under 50 nM.
With `Cc1sc2c(c1C)C(c1ccc(Cl)cc1)=N[C@@H](CC(=O)NC[C@H]1NC(=O)CNC(=O)C[C@@H](Cc3ccc(-c4ccccc4)cc3)NC(=O)[C@@H]3C[C@@H](O)CN3C(=O)[C@H](C(C)(C)C)NC(=O)COCCNC1=O)c1nnc(C)n1-2` [Compound 64] (cyclo([AEA][Tle][Hyp][X9]G[dDap](JQ1acid))), the DC50 is over 20000 nM.
To `Cc1sc2c(c1C)C(c1ccc(Cl)cc1)=N[C@@H](CC(=O)NC[C@H]1NC(=O)[C@@H](C)NC(=O)C[C@@H](Cc3ccc(-c4ccccc4)cc3)NC(=O)[C@@H]3C[C@@H](O)CN3C(=O)[C@H](C(C)(C)C)NC(=O)COCCNC1=O)c1nnc(C)n1-2` [Compound 65] (cyclo([AEA][Tle][Hyp][X9][dA][dDap](JQ1acid))) belongs over 20000 nM.
Molecule `Cc1sc2c(c1C)C(c1ccc(Cl)cc1)=N[C@@H](CC(=O)NC[C@H]1NC(=O)[C@@H](CCC(N)=O)NC(=O)[C@@H](Cc3ccc(-c4ccccc4)cc3)NC(=O)[C@@H]3C[C@@H](O)CN3C(=O)[C@H](C(C)(C)C)NC(=O)COCCNC1=O)c1nnc(C)n1-2` [Compound 66] (cyclo([AEA][Tle][Hyp][dBip][dQ][dDap](JQ1acid))) displayed a DC50 of under 1000 nM.
For `Cc1sc2c(c1C)C(c1ccc(Cl)cc1)=N[C@@H](CC(=O)NC[C@H]1CCCNC(=O)[C@@H](Cc3ccc(-c4ccccc4)cc3)NC(=O)[C@@H]3C[C@@H](O)CN3C(=O)[C@H](C(C)(C)C)NC(=O)COCCNC1=O)c1nnc(C)n1-2` [Compound 67] the value was under 50 nM.
`Cc1ncsc1-c1ccc([C@H]2NC(=O)[C@@H]3C[C@@H](O)CN3C(=O)[C@H](C(C)(C)C)NC(=O)CSC[C@H](C(N)=O)NC(=O)[C@@H](NC(=O)C[C@@H]3N=C(c4ccc(Cl)cc4)c4c(sc(C)c4C)-n4c(C)nnc43)NC(=O)CNC2=O)cc1` [Compound 68]: the DC50 is over 20000 nM.
For `Cc1ncsc1-c1ccc([C@H]2NC(=O)[C@@H]3C[C@@H](O)CN3C(=O)[C@H](C(C)(C)C)NC(=O)CSC[C@H](C(N)=O)NC(=O)[C@H](NC(=O)C[C@@H]3N=C(c4ccc(Cl)cc4)c4c(sc(C)c4C)-n4c(C)nnc43)NC(=O)CNC2=O)cc1` [Compound 69] the value was over 20000 nM; for `Cc1ncsc1-c1ccc(C[C@H]2NC(=O)[C@@H]3C[C@@H](O)CN3C(=O)[C@H](C(C)(C)C)NC(=O)COCCNC(=O)[C@@H](CNC(=O)C[C@@H]3N=C(c4ccc(Cl)cc4)c4c(sc(C)c4C)-n4c(C)nnc43)NC(=O)[C@@H](C)NC2=O)cc1` [Compound 70] (cyclo([AEA][Tle][Hyp][X13][dA][dDap](JQ1acid))), under 50 nM; for `Cc1sc2c(c1C)C(c1ccc(Cl)cc1)=N[C@@H](CC(=O)NC[C@H]1NC(=O)[C@@H](CCCCN=[N+]=[N-])NC(=O)[C@@H](Cc3ccc(-c4ccccc4)cc3)NC(=O)[C@@H]3C[C@@H](O)CN3C(=O)[C@H](C(C)(C)C)NC(=O)COCCNC1=O)c1nnc(C)n1-2` [Compound 71] (cyclo([AEA][Tle][Hyp][dBip][dLys(N3)][dDap](JQ1acid))), under 1000 nM.
As for `Cc1sc2c(c1C)C(c1ccc(Cl)cc1)=N[C@@H](CC(=O)NC[C@H]1NC(=O)[C@@H](CCCCN)NC(=O)[C@@H](Cc3ccc(-c4ccccc4)cc3)NC(=O)[C@@H]3C[C@@H](O)CN3C(=O)[C@H](C(C)(C)C)NC(=O)COCCNC1=O)c1nnc(C)n1-2` [Compound 72] (cyclo([AEA][Tle][Hyp][dBip][dK][dDap](JQ1acid))), the DC50 was under 1000 nM.
To `Cc1sc2c(c1C)C(c1ccc(Cl)cc1)=N[C@@H](CC(=O)NC[C@H]1NC(=O)CNC(=O)[C@@H](Cc3ccc(-c4ccccc4)cc3)NC(=O)[C@@H]3C[C@@H](O)CN3C(=O)[C@H](C(C)(C)C)n3cc(nn3)COCCNC1=O)c1nnc(C)n1-2` [Compound 200] belongs under 50 nM.
